The nature of data set [1]: DNDI: Cytotoxicity against human MRC-5 lung fibroblast cells. The settings on record: IC50.
For data set [2], the system named is Trypanosoma brucei brucei. Briefly: microbe, parasite or virus in culture. The format is functional, organism-based, STIB 795.
Description: DNDI: Inhibition of Human African Trypanosomiasis (HAT), STIB 795, in vitro

Data on 40 molecules can be found in ChEMBL document CHEMBL2094269, “WEHI/Eskitis Trypanosoma b. brucei screening data”.

One may read the IC50 as the midpoint of a concentration-inhibition curve. A high value points to lower potency.

For the molecule `CCN1C=CC(=Cc2ccc3cc(C)ccc3[n+]2C)C=C1`, the IC50 was more than 20.8 µM in data set [1] and 0.538 µM in data set [2] (Trypanosoma brucei, STIB 795).

For `Cc1c2[nH]c3ccccc3c2c2c([n+]1C)CC(C)(C)CC2`, the IC50 was more than 41.7 µM in data set [1] and 8.67 µM in data set [2] (Trypanosoma brucei, STIB 795).

As to `CN(C)c1cc[n+](Cc2c(Cl)cccc2Cl)cc1`, the IC50 was more than 41.7 µM in data set [1] and not above 0.044 µM in data set [2] (Trypanosoma brucei, STIB 795).

On to `O=C1/C(=C/c2ccncc2)CCC/C1=C\c1ccncc1`, for which the IC50 in data set [1] is 1.94 µM; in data set [2] (Trypanosoma brucei, STIB 795), 0.03 µM.

Regarding `COCCN1CSC(=S)N(Cc2ccco2)C1`, the half-maximal inhibitory concentration (IC50) is more than 4.17 µM in data set [1] and 4.84 µM in data set [2] (Trypanosoma brucei, STIB 795).

With `Cc1ccccc1C(=O)O/N=C(\N)Cc1cccs1`, the half-inhibitory concentration (IC50) is more than 20.8 µM in data set [1] and 0.414 µM in data set [2] (Trypanosoma brucei, STIB 795).

Turning to `COc1ccc(C(=N)NOC(=O)c2ccco2)cc1`, the IC50 in data set [1] was more than 20.8 µM; in data set [2] (Trypanosoma brucei, STIB 795), 3.69 µM.

In the case of `CCc1ccc2nc3nc(C)cc(C)c3c(N)c2c1`, the IC50 in data set [1] was more than 20.8 µM; in data set [2] (Trypanosoma brucei, STIB 795), 4.86 µM.

For the molecule `N=C(NOC(=O)CC1CCCCC1)c1cccnc1`, the IC50 in data set [1] is more than 41.7 µM; in data set [2] (Trypanosoma brucei, STIB 795), 5.36 µM.

`Cc1ccccc1C(=O)O/N=C(\N)c1ccccc1`: the IC50 is more than 20.8 µM in data set [1] and 0.881 µM in data set [2] (Trypanosoma brucei, STIB 795).

Consider `Cc1cccc(C(=N)NOC(=O)c2ccoc2C)c1`, for which the IC50 in data set [1] is more than 10.4 µM; in data set [2] (Trypanosoma brucei, STIB 795) it was 0.338 µM.

As to `COc1ccc(C(=N)NOC(=O)c2cccs2)cc1`, the IC50 in data set [1] is more than 41.7 µM; in data set [2] (Trypanosoma brucei, STIB 795), 1.84 µM.

As for `Cc1ccc(O)c(NN=C2C(=O)CC(C)(C)CC2=O)c1`, the IC50 was more than 4.17 µM in data set [1] and 5.09 µM in data set [2] (Trypanosoma brucei, STIB 795).

For the molecule `Oc1c(Cl)cc(CN2CCOCC2)c2cccnc12`, the IC50 is more than 20.8 µM in data set [1]; 1.12 µM in data set [2]; 0.956 µM in data set [2] (Trypanosoma brucei, STIB 795).

As to `CNCc1ccccc1Sc1cccc2ccccc12`, the IC50 was more than 41.7 µM in data set [1] and 4.82 µM in data set [2] (Trypanosoma brucei, STIB 795).

In the case of `c1ccc2c(c1)CC1CNCc3cccc(c31)S2` (configuration not stated), the concentration for half-maximal inhibition (IC50) in data set [1] is more than 41.7 µM; in data set [2] (Trypanosoma brucei, STIB 795) it was 5.59 µM.

Consider `NCC(O)(c1ccc(Cl)cc1)c1ccc(Cl)cc1`, for which the IC50 in data set [1] was more than 20.8 µM; in data set [2], 5.39 µM; in data set [2] (Trypanosoma brucei, STIB 795) it was 5.33 µM.

As to `c1ccc(NN=C(c2ccccn2)c2ccccn2)nc1`, the IC50 in data set [1] is more than 1.04 µM; in data set [2] (Trypanosoma brucei, STIB 795), 0.468 µM.

For the molecule `COC(=O)N/N=C\c1ccc(-c2ccccc2Cl)o1`, the IC50 was more than 41.7 µM in data set [1] and 1.95 µM in data set [2] (Trypanosoma brucei, STIB 795).

As for `O=C1c2ccccc2C(=O)N1/N=C/c1ccccc1`, the IC50 was more than 41.7 µM in data set [1] and 0.727 µM in data set [2] (Trypanosoma brucei, STIB 795).

As for `CCn1ccnc1-c1cccc(-c2ccccn2)n1`, the IC50 in data set [1] was more than 1.04 µM; in data set [2] (Trypanosoma brucei, STIB 795), 0.425 µM.

As to `CC[N+]1=C(/C=C/N(C)C)c2cccc3cccc1c23`, the IC50 in data set [1] is more than 20.8 µM; in data set [2] (Trypanosoma brucei, STIB 795), 3.41 µM.

As for `O/N=C1\C=Cc2[nH]c(-c3ccccc3)cc2\C1=N/O`, the half-inhibitory concentration (IC50) in data set [1] was determined as 0.721 µM; in data set [2] (Trypanosoma brucei, STIB 795), 0.254 µM.

For the molecule `Cc1cccc(C(=O)O/N=C(\N)c2ccncc2)c1`, the IC50 is more than 41.7 µM in data set [1] and 5.42 µM in data set [2] (Trypanosoma brucei, STIB 795).

`Cc1ccc2[nH]c3c(c2c1)CCC/C3=N\N=C(N)N`: the IC50 in data set [1] is more than 20.8 µM; in data set [2] (Trypanosoma brucei, STIB 795) it was 8.57 µM.

On to `CC(=O)C(C(C)=O)C1=CC(=O)C(=O)c2ccccc21`, for which the IC50 in data set [1] was more than 20.8 µM; in data set [2] (Trypanosoma brucei, STIB 795), 7.06 µM.

Consider `COc1ccc(C2=C(C)C(=O)C(C)=C(C)C2=O)cc1`, for which the IC50 in data set [1] is more than 20.8 µM; in data set [2] (Trypanosoma brucei, STIB 795), 5.55 µM.

With `S=c1c(Cl)c(Cl)cnn1-c1ccccc1`, the IC50 in data set [1] is more than 20.8 µM; in data set [2] (Trypanosoma brucei, STIB 795) it was 6.17 µM.

Take `CCN(CC)c1ccc(/C=N/n2cnnc2)c(O)c1`: the IC50 in data set [1] was more than 41.7 µM; in data set [2] (Trypanosoma brucei, STIB 795) it was 1.92 µM.

In the case of `CS(=O)(=O)/C=C(\c1ccccc1)c1ccncc1`, the IC50 in data set [1] is more than 20.8 µM; in data set [2] (Trypanosoma brucei, STIB 795) it was 0.641 µM.

As to `CCc1cc2c(cc1C(C)N)C(C)(C)CCC2(C)C` (configuration not stated), the IC50 in data set [1] is more than 20.8 µM; in data set [2] (Trypanosoma brucei, STIB 795), 5 µM.

In the case of `CC(C)(C)C(N)CCc1ccc(Cl)cc1Cl` (configuration not stated), the IC50 in data set [1] was more than 41.7 µM; in data set [2] (Trypanosoma brucei, STIB 795) it was 5.49 µM.

As to `COC(=O)c1ccccc1N/N=C1\C(=N)ON=C1N`, the IC50 in data set [1] is more than 41.7 µM; in data set [2] (Trypanosoma brucei, STIB 795) it was 0.41 µM.

For `Cc1ccc([S@+]([O-])/C(F)=C\c2ccccn2)cc1`, the IC50 in data set [1] is 5.57 µM; in data set [2] (Trypanosoma brucei, STIB 795), 0.903 µM.

Consider `Cc1ccc2c(c1)C(=O)C(CN1CCOCC1)CO2` (configuration not stated), for which the IC50 in data set [1] is more than 20.8 µM; in data set [2] (Trypanosoma brucei, STIB 795), 2.17 µM.

Regarding `Oc1c(Cl)cc(CN2CCCC2)c2cccnc12`, the IC50 in data set [1] is more than 4.17 µM; in data set [2] (Trypanosoma brucei, STIB 795) it was 4.32 µM.

`O=c1nc2oc3ccc4ccccc4c3cc-2c(=O)[nH]1`: the IC50 in data set [1] was more than 20.8 µM; in data set [2] (Trypanosoma brucei, STIB 795), 5.06 µM.

Consider `CC1(C)CCC[C@]2(C)C=C(C3OCCO3)C(=O)C[C@@H]12`, for which the IC50 in data set [1] is more than 41.7 µM; in data set [2] (Trypanosoma brucei, STIB 795), 5.21 µM.

As for `O=C1c2ccccc2C(=O)c2c1ccc1c(=O)o[nH]c21`, the IC50 in data set [1] was more than 41.7 µM; in data set [2] (Trypanosoma brucei, STIB 795), 4.64 µM.

Consider `Cc1cccc(NCc2ccc(O)c3ncccc23)n1`, for which the IC50 in data set [1] was more than 20.8 µM; in data set [2] (Trypanosoma brucei, STIB 795), 4.89 µM.
